According to publication PMC12446003, “Pharmacological characterization of linaprazan glurate (X842), a novel potassium-competitive acid blocker, in vitro and in vivo” (Frontiers in Pharmacology, 2025):
Where two headings read alike, the source gives them in different places.

Columns and labels:
[1] = Pharmacokinetic assessment of X842 in dogs (IV, single oral, repeated oral); format: in vivo; conditions: beagle, dog, plasma; for half-life at 1 day: read-out: t1/2 Day 1 (converted); for half-life at 7 day: read-out: t1/2 Day 7 (converted)
Method: (§1) Pharmacokinetic assessments were conducted by Shanghai Medicilon Inc. Using C18 solid-phase extraction (Shimadzu UFLC-20A, ACE 3, C18, 3.0 µm, 150 × 4.6 mm; Shimadzu, Japan) with the following conditions: mobile phase A: 1 M ammonium acetate in water, mobile phase B: 100% acetonitrile; gradient 0–5 min: 100% A, 5–30 min: 85% A, 35–63 min: 75% A, 63–65 min: 55% A, 65–70 min: 0% A, 72–87 min: 100% A; flow rate 0.7 mL/min; column temperature 30 °C ([Weidof and Covey, 1992]). […] Bioavailability was calculated as F (%) = (Doseiv × AUCpo(0–24h)) ÷ (Dosepo × AUCiv (0–24h)) × 100%, where “po” represents oral administration and “iv” represents intravenous administration.
Male and female Beagle dogs weighing around 9 kg were arbitrarily selected for testing. Food and water were provided ad libitum, except during overnight fasting (15–16 h) prior to oral drug administration ([Adebowale et al., 2002]). X842 were dissolved in the PEG400/ethanol/Solutol/water mixture (40:10:5:45% v/v) and methane sulfonic acid was used to adjust to pH 3, yielding solutions with concentrations of 0.3 mg/mL, 1.2 mg/mL, and 4.8 mg/mL for oral administration. There were four rounds of drug administration. One week was required between the rounds of testing according to the conditions for of animal welfare maintenance. For IV injection, a drug solution with a concentration of 0.3 mg/mL was prepared and filtered through a 0.22-μm filter. Blood samples were collected via the jugular vein using the same procedures as were used for the rat experiments. Following centrifugation, the plasma was transferred to clean tubes and stored at −80 °C until further analysis. All animals were euthanized by phenobarbital injection after the final blood sample collection. Pharmacokinetic assessments were conducted as described in 2.2.1.

[2] = Pharmacokinetic assessment of X842 in rats (IV, single oral, repeated oral); format: in vivo, Sprague-Dawley rats; conditions: for Cmax / AUC(0-t) / half-life: Sprague-Dawley, rat, plasma; for AUC(0-t): read-out: AUC(0–24h)
Method: Male and female Sprague-Dawley rats weighing approximately 150 g were housed individually with a 12-h light/dark cycle. Food and water were provided ad libitum, except during overnight fasting (10–16 h) prior to oral drug administration, as described previously ([Kotegawa et al., 1998]; [Kotegawa et al., 2002]). To investigate the absorption kinetics of X842 (prodrug) and linaprazan (metabolite, parent drug) in rats after oral and intravenous administration of X842, X842 were dissolved in 5% Solutol HS15/45% ethanol/10% PEG400/40% saline, and methane sulfonic acid was used to adjust to pH 3, yielding solutions with concentrations of 0.6 mg/mL, 2.4 mg/mL, and 9.6 mg/mL for oral administration. For intravenous (IV) injection, a drug solution (0.6 mg/mL) was prepared and filtered through a 0.22-μm filter. Blood samples were collected via the jugular vein of conscious rats (without intubation, narcotics, or antibiotics) prior to dosing and at 0.083, 0.25, 0.5, 1, 2, 4, 6, 8, and 24 h after dosing. Blood samples were placed into tubes containing sodium heparin and centrifuged at 3,500 rpm for 10 min at 4 °C. Following centrifugation, the plasma was transferred to clean tubes and stored at −80 °C until further analysis. All animals were euthanized by carbon dioxide (CO2) inhalation after the final blood sample collection.
as §1

[3] = 1.2 mg/kg, female dogs, repeat oral X842, Day 1, analyte as labelled
[4] = 1.2 mg/kg, female dogs, repeat oral X842, Day 7, analyte as labelled
[5] = female, iv, 0.6 mg/kg, female rats, intravenous X842, plasma analyte as labelled
[6] = female, po, 0.6 mg/kg, female rats, single oral X842 0.6 mg/kg, analyte as labelled
[7] = female, po, 2.4 mg/kg, female rats, single oral X842 2.4 mg/kg, analyte as labelled
[8] = female, po, 2.4 mg/kg, female rats, single oral X842, 2.4 mg/kg (third dose group)
[9] = male, iv, 0.6 mg/kg, male rats, intravenous X842, plasma analyte as labelled
[10] = male, po, 0.6 mg/kg, male rats, single oral X842 0.6 mg/kg, analyte as labelled
[11] = male, po, 2.4 mg/kg, male rats, single oral X842 2.4 mg/kg, analyte as labelled
[12] = male, po, 2.4 mg/kg, male rats, single oral X842, 2.4 mg/kg (third dose group)

In the case of `Cc1cccc(C)c1CNc1cc(C(=O)NCCOC(=O)CCCC(=O)O)cn2c(C)c(C)nc12` [X842, linaprazan glurate], the Cmax at 1 day [1, 3] is reported as 138 ± 7.6 ng/mL, the half-life at 1 day [1, 3] is reported as 1.1 ± 0.2 h and the Cmax at 7 day [1, 4] is reported as 47.2 ± 10.6 ng/mL. It also gave a half-life at 7 day [1, 4] of 2 ± 1.2 h, a half-life at 1 day ([1]; 1.2 mg/kg, male dogs, 7 days of repeat oral X842, Day 1, analyte as labelled) of 2.01 ± 0.73 h and a half-life at 7 day ([1]; 1.2 mg/kg, male dogs, 7 days of repeat oral X842, Day 7, analyte as labelled) of 8.6 ± 10.8 h. The Cmax at 1 day ([1]; 1.2 mg/kg, male dogs, repeat oral X842, Day 1, analyte as labelled) was 26.3 ± 21.6 ng/mL, the Cmax at 7 day ([1]; 1.2 mg/kg, male dogs, repeat oral X842, Day 7, analyte as labelled) was 15.6 ± 10.4 ng/mL and the Cmax ([1]; female dogs, intravenous X842 0.3 mg/kg, analyte as labelled) was 694 ± 225 ng/mL. For the same compound, the half-life ([1]; female dogs, intravenous X842 0.3 mg/kg, analyte as labelled, read-out: t1/2 (converted)) was 0.7 ± 0.1 h, the Cmax ([1]; female dogs, single oral X842 0.3 mg/kg, analyte as labelled) was 6.1 ng/mL and the Cmax ([1]; female dogs, single oral X842 1.2 mg/kg, analyte as labelled) was 37.5 ± 7.6 ng/mL. The half-life ([1]; female dogs, single oral X842 1.2 mg/kg, analyte as labelled, read-out: t1/2 (converted)) was 1.2 ± 0.2 h, the Cmax ([1]; female dogs, single oral X842 4.8 mg/kg, analyte as labelled) was 271 ng/mL and the half-life ([1]; female dogs, single oral X842 4.8 mg/kg, analyte as labelled, read-out: t1/2 (converted)) was 2.7 ± 2.2 h. For the same compound, the half-life ([1]; female dogs, single oral dose, read-out: t1/2 (range over doses)) was 2.1 to 3.2 h, the Cmax ([1]; male dogs, intravenous X842 0.3 mg/kg, analyte as labelled) was 745 ± 157 ng/mL and the half-life ([1]; male dogs, intravenous X842 0.3 mg/kg, analyte as labelled, read-out: t1/2 (converted)) was 0.5 ± 0.1 h. It also gave a Cmax ([1]; male dogs, single oral X842 0.3 mg/kg, analyte as labelled) of 5.3 ± 4 ng/mL, a Cmax ([1]; male dogs, single oral X842 1.2 mg/kg, analyte as labelled) of 26.3 ng/mL and a half-life ([1]; male dogs, single oral X842 1.2 mg/kg, analyte as labelled, read-out: t1/2 (converted)) of 2 ± 0.7 h. It also gave a Cmax ([1]; male dogs, single oral X842 4.8 mg/kg, analyte as labelled) of 355 ng/mL, a half-life ([1]; male dogs, single oral X842 4.8 mg/kg, analyte as labelled, read-out: t1/2 (converted)) of 3.4 ± 2.2 h and a half-life ([1]; male dogs, single oral dose, read-out: t1/2 (range over doses)) of 2 to 3.4 h. For the same compound, the half-life ([1]; both sexes, 0.3 mg/kg, dogs, IV administration, similar between the sexes, read-out: t1/2 (converted)) was roughly 0.6 h, the AUC(0-t) ([1]; female, iv, 0.3 mg/kg, female dogs, intravenous X842 0.3 mg/kg, analyte as labelled, read-out: AUC(0-24h)) was 343 ± 125 ng·h/mL and the AUC(0-t) ([1]; female, po, 0.3 mg/kg, female dogs, single oral X842 0.3 mg/kg, analyte as labelled, read-out: AUC(0-24h)) was 5.1 ± 3.3 ng·h/mL. The AUC(0-t) ([1]; female, po, 1.2 mg/kg, female dogs, repeat oral X842, Day 1, analyte as labelled, read-out: AUC(0-24h) Day 1) was 72.3 ± 18.3 ng·h/mL, the AUC(0-t) ([1]; female, po, 1.2 mg/kg, female dogs, repeat oral X842, Day 7, analyte as labelled, read-out: AUC(0-24h) Day 7) was 69.4 ± 54.1 ng·h/mL and the AUC(0-t) ([1]; female, po, 1.2 mg/kg, female dogs, single oral X842 1.2 mg/kg, analyte as labelled, read-out: AUC(0-24h)) was 72.3 ng·h/mL. It also gave an AUC(0-t) ([1]; female, po, 4.8 mg/kg, female dogs, single oral X842 4.8 mg/kg, analyte as labelled, read-out: AUC(0-24h)) of 504 ng·h/mL, an AUC(0-t) ([1]; male, iv, 0.3 mg/kg, male dogs, intravenous X842 0.3 mg/kg, analyte as labelled, read-out: AUC(0-24h)) of 361 ± 118 ng·h/mL and an AUC(0-t) ([1]; male, po, 0.3 mg/kg, male dogs, single oral X842 0.3 mg/kg, analyte as labelled, read-out: AUC(0-24h)) of 5.2 ± 2.3 ng·h/mL. The AUC(0-t) ([1]; male, po, 1.2 mg/kg, male dogs, repeat oral X842, Day 1, analyte as labelled, read-out: AUC(0-24h) Day 1) was 65.1 ± 51.2 ng·h/mL, the AUC(0-t) ([1]; male, po, 1.2 mg/kg, male dogs, repeat oral X842, Day 7, analyte as labelled, read-out: AUC(0-24h) Day 7) was 35.4 ± 8.7 ng·h/mL and the AUC(0-t) ([1]; male, po, 1.2 mg/kg, male dogs, single oral X842 1.2 mg/kg, analyte as labelled, read-out: AUC(0-24h)) was 65.1 ng·h/mL. The AUC(0-t) ([1]; male, po, 4.8 mg/kg, male dogs, single oral X842 4.8 mg/kg, analyte as labelled, read-out: AUC(0-24h)) was 889 ng·h/mL, the Cmax [2, 5] was 606 ± 284 ng/mL and the AUC(0-t) [2, 5] was 218 ± 101 ng·h/mL. The half-life ([2]; female, iv, 0.6 mg/kg, female rats, intravenous X842, plasma analyte as labelled, read-out: t1/2 (converted)) was 0.4 ± 0.03 h, the Cmax [2, 6] was 8.7 ± 4.9 ng/mL and the AUC(0-t) [2, 6] was 13.8 ± 13.1 ng·h/mL. It also gave a half-life ([2]; female, po, 0.6 mg/kg, female rats, single oral X842 0.6 mg/kg, analyte as labelled, read-out: t1/2 (converted)) of 2.8 h, a Cmax [2, 7] of 42.6 ± 17.4 ng/mL and an AUC(0-t) [2, 7] of 85.6 ± 45.6 ng·h/mL. The half-life ([2]; female, po, 2.4 mg/kg, female rats, single oral X842 2.4 mg/kg, analyte as labelled, read-out: t1/2 (converted)) was 4.1 ± 1.2 h, the Cmax [2, 8] was 164 ± 124 ng/mL and the AUC(0-t) [2, 8] was 310 ± 256 ng·h/mL. It also gave a half-life ([2]; female, po, 2.4 mg/kg, female rats, single oral X842, 2.4 mg/kg (third dose group), read-out: t1/2 (converted)) of 2.1 ± 0.3 h, a half-life ([2]; female, po, female rats, single-dose oral administration, read-out: t1/2 (range over doses)) of 2.1 to 4.1 h and a Cmax [2, 9] of 448 ± 120 ng/mL. For the same compound, the half-life ([2]; male, iv, 0.6 mg/kg, male rats, intravenous X842, plasma analyte as labelled (prodrug X842 / parent linaprazan), read-out: t1/2 (converted)) was 0.4 ± 0.1 h, the AUC(0-t) [2, 9] was 146 ± 38 ng·h/mL and the Cmax [2, 10] was 2.5 ± 1.8 ng/mL. It also gave an AUC(0-t) [2, 10] of 2.5 ± 2.6 ng·h/mL, a Cmax [2, 11] of 14.6 ± 10.1 ng/mL and an AUC(0-t) [2, 11] of 18.3 ± 10 ng·h/mL. For the same compound, the half-life ([2]; male, po, 2.4 mg/kg, male rats, single oral X842 2.4 mg/kg, analyte as labelled, read-out: t1/2 (converted)) was 2.6 h, the Cmax [2, 12] was 49.7 ± 35.4 ng/mL and the AUC(0-t) [2, 12] was 11.6 ± 77.5 ng·h/mL. For the same compound, the half-life ([2]; male, po, 2.4 mg/kg, male rats, single oral X842, 2.4 mg/kg (third dose group), read-out: t1/2 (converted)) was 2.01 ± 0.18 h, the half-life ([2]; male, po, male rats, single-dose oral administration, read-out: t1/2 (range over doses)) was 2 to 2.7 h and the “Plasma concentration after IV administration” value ([2]; within 0.5 h after IV administration, male and female rats) was “barely detectable”.
